Measurements taken from ChEMBL document CHEMBL4806959, “Antagonistic peptides for frizzled-1 and frizzled-2” (2015).
Calls of active or inactive are those of the source. No cut-off for these calls is given here. Residues, ends and D or L forms follow the SMILES beside them.

Assays:
[1] = system: Mus musculus; experiment: Cardioprotective activity against myocardial infarction Swiss mouse model assessed as reduction in infarction expansion in heart at 6 ug/kg/day, sc via osmotic pumps for 5 weeks by macroscopic analysis; type: functional, organism-based; conditions: dose 6.0 µg/kg/day
[2] = system: Mus musculus; experiment: Cardioprotective activity against myocardial infarction Swiss mouse model assessed as reduction in infarct area in heart at 6 ug/kg/day, sc via osmotic pumps for 2 to 5 weeks by immunohistochemical staining analysis; type: functional, organism-based; conditions: dose 6.0 µg/kg/day, time 2-5 weeks
[3] = system: Mus musculus; experiment: Cardioprotective activity against myocardial infarction Swiss mouse model assessed as increase in myofibroblast number at 6 ug/kg/day, sc via osmotic pumps for 2 weeks by immunohistochemical staining analysis relative to control; type: functional; conditions: dose 6 µg/kg/day
[4] = system: Mus musculus; experiment: Cardioprotective activity against myocardial infarction Swiss mouse model assessed as increase in alpha-SMA gene expression in heart at 6 ug/kg/day, sc via osmotic pumps for 5 weeks by qPCR analysis; type: functional, organism-based; conditions: dose 6.0 µg/kg/day
[5] = molecular target: Frizzled-1 (Rattus norvegicus) (UniProt Q08463); experiment: Agonist activity at rat frizzled-1 expressed in human HEK293superTOP flash cells by luciferase reporter gene assay; type: cell-based; conditions: HEK293
Chain of Frizzled-1 (Rattus norvegicus) (Q08463 whole entry): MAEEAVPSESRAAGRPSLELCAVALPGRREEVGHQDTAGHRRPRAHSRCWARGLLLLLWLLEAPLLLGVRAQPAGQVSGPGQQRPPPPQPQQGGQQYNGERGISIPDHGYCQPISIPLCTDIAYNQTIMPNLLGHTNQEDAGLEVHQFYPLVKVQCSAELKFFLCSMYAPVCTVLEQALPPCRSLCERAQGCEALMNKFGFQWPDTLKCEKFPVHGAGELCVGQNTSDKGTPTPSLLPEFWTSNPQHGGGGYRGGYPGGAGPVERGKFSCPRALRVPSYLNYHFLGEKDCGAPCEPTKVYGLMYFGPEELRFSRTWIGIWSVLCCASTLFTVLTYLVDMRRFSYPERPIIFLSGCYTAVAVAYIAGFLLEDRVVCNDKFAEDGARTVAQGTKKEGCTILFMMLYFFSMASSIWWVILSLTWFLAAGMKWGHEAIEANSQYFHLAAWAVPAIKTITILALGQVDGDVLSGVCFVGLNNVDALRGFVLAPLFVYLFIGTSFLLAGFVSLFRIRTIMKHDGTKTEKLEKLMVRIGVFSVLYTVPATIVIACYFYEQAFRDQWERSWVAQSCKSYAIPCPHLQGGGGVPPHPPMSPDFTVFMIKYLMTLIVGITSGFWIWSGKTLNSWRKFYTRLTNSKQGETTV

[6] = system: Mus musculus; experiment: Cardioprotective activity against myocardial infarction Swiss mouse model assessed as ventricular dilation at 6 ug/kg/day, sc via osmotic pumps for 5 weeks by macroscopic analysis; type: functional, organism-based; conditions: dose 6.0 µg/kg/day
[7] = molecular target: Frizzled-1 (Mus musculus) (UniProt O70421); experiment: Antagonist activity at Wnt3a-stimulaed mouse frizzled-1 expressed in human HEK293superTOP flash cells incubated for 24 hrs by luciferase reporter gene assay; type: cell-based; conditions: HEK293, filed as antagonist
Chain of Frizzled-1 (Mus musculus) (O70421 whole entry, looked up): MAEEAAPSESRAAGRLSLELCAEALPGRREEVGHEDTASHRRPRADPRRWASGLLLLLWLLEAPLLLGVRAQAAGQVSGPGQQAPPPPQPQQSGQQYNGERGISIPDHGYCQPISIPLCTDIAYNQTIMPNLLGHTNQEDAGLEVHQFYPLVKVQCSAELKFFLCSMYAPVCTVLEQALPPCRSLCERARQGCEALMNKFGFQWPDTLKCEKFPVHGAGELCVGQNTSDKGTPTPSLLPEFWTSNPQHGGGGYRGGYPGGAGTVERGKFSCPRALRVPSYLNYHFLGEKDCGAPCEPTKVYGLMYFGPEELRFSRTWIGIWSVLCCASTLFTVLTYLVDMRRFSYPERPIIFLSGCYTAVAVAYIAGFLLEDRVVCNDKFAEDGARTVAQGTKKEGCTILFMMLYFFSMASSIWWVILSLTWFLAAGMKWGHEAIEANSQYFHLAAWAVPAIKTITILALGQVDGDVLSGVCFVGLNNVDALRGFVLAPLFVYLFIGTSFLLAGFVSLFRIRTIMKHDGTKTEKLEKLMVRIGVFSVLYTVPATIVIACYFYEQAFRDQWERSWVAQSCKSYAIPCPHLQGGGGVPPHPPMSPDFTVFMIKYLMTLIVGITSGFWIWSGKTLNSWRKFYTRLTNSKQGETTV

[8] = molecular target: Frizzled-5 (Homo sapiens) (UniProt Q13467); experiment: Antagonist activity at Wnt3a-stimulaed human frizzled-5 expressed in human HEK293superTOP flash cells at 10 nM incubated for 24 hrs by luciferase reporter gene assay; type: functional, cell-based; conditions: HEK293
Chain of Frizzled-5 (Homo sapiens) (Q13467 whole entry): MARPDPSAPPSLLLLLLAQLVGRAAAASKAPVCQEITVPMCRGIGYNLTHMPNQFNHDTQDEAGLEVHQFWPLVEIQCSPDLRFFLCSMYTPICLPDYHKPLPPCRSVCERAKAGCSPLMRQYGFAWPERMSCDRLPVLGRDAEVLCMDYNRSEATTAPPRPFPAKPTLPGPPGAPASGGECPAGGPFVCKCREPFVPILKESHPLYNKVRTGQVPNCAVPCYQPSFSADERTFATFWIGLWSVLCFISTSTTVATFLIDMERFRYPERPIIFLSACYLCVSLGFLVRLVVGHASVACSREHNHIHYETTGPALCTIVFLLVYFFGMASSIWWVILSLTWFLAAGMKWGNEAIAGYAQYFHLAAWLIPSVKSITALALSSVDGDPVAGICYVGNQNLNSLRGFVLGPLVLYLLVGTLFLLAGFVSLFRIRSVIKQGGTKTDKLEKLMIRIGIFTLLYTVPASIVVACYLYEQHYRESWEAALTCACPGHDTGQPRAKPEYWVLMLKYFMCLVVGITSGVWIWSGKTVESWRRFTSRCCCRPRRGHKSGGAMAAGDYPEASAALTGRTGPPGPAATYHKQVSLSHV

[9] = molecular target: Frizzled-2 (Rattus norvegicus) (UniProt Q08464); experiment: Agonist activity at rat frizzled-2 expressed in CHO cells by luciferase reporter gene assay; type: cell-based
Chain of Frizzled-2 (Rattus norvegicus) (Q08464 29-570 limits assumed): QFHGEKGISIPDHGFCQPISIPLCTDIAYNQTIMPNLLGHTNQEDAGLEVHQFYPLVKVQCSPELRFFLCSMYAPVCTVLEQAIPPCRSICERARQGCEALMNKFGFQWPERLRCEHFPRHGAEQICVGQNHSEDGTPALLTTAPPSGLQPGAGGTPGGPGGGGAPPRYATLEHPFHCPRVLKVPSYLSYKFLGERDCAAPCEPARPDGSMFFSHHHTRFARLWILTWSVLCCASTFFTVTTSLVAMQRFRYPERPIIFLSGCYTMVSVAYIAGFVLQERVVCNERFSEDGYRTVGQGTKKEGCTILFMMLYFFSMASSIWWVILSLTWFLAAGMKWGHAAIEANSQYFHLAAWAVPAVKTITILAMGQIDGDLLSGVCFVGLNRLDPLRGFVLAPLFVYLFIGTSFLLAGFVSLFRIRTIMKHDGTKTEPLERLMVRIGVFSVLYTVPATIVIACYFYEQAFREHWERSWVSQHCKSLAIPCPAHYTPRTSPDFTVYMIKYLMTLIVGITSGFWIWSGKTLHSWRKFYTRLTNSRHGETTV

[10] = molecular target: T1, Frizzled-4 (Homo sapiens) (UniProt Q9ULV1); experiment: Antagonist activity at Wnt3a-stimulaed frizzled-4 (unknown origin) expressed in human HEK293superTOP flash cells incubated for 24 hrs by luciferase reporter gene assay; type: functional, cell-based; conditions: HEK293
T1 sequence (whole entry): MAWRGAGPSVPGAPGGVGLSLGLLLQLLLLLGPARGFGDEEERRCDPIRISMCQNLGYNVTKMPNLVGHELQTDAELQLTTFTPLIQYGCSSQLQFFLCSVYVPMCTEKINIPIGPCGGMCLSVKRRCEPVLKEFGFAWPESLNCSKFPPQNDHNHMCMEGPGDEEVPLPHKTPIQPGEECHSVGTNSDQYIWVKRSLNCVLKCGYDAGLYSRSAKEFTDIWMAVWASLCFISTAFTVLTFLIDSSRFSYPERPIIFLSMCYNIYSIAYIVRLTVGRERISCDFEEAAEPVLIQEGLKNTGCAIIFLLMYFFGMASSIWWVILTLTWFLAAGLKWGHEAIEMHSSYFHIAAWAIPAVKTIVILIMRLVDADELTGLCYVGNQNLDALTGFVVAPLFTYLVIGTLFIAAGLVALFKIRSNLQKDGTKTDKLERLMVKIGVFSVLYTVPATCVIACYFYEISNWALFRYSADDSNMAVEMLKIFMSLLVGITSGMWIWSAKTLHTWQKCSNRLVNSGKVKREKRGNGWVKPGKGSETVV

[11] = system: Mus musculus; experiment: Cardioprotective activity against myocardial infarction Swiss mouse model assessed as ratio of maximum negative slope to pressure of negative slope at 6 ug/kg/day, sc via osmotic pumps for 5 weeks by Millar pressure recording based analysis (reference value: 33.29 +/-1.14 1/sec); type: functional; conditions: dose 6 µg/kg/day
[12] = molecular target: Frizzled-1 (Rattus norvegicus) (UniProt Q08463); experiment: Agonist activity at rat frizzled-1 expressed in African green monkey COS7 cells by luciferase reporter gene assay; type: cell-based
[13] = system: Mus musculus; experiment: Cardioprotective activity against myocardial infarction Swiss mouse model assessed as ratio of maximum positive slope to pressure of positive slope at 6 ug/kg/day, sc via osmotic pumps for 5 weeks by Millar pressure recording based analysis (reference value: 43.78 +/-1.93 1/sec); type: functional; conditions: dose 6 µg/kg/day
[14] = system: Mus musculus; experiment: Cardioprotective activity against myocardial infarction Swiss mouse model assessed as LVAs at 6 ug/kg/day, sc via osmotic pumps for 5 weeks by echocardiographic analysis (reference value: 0.44 +/-0.01 cm2); type: functional; conditions: dose 6 µg/kg/day
[15] = molecular target: Frizzled-1 (Rattus norvegicus) (UniProt Q08463); experiment: Agonist activity at rat frizzled-1 expressed in CHO cells by luciferase reporter gene assay; type: cell-based
[16] = system: Mus musculus; experiment: Cardioprotective activity against myocardial infarction Swiss mouse model assessed as ESV_L at 6 ug/kg/day, sc via osmotic pumps for 5 weeks by echocardiographic analysis (reference value: 0.179 +/-0.007 cm3); type: functional; conditions: dose 6 µg/kg/day
[17] = system: Mus musculus; experiment: Cardioprotective activity against myocardial infarction Swiss mouse model assessed as animal mortality at 6 ug/kg/day, sc via osmotic pumps for 5 weeks (reference value: 35%); type: functional; conditions: 840 h, at 6 µg/kg/day
[18] = molecular target: T2, Frizzled-2 (Homo sapiens, UniProt Q14332); experiment: Antagonist activity at Wnt3a-stimulaed human frizzled-2 expressed in human HEK293superTOP flash cells incubated for 24 hrs by luciferase reporter gene assay; type: functional, cell-based; conditions: HEK293, filed as antagonist
T2 sequence (Q14332 24-565 limits assumed): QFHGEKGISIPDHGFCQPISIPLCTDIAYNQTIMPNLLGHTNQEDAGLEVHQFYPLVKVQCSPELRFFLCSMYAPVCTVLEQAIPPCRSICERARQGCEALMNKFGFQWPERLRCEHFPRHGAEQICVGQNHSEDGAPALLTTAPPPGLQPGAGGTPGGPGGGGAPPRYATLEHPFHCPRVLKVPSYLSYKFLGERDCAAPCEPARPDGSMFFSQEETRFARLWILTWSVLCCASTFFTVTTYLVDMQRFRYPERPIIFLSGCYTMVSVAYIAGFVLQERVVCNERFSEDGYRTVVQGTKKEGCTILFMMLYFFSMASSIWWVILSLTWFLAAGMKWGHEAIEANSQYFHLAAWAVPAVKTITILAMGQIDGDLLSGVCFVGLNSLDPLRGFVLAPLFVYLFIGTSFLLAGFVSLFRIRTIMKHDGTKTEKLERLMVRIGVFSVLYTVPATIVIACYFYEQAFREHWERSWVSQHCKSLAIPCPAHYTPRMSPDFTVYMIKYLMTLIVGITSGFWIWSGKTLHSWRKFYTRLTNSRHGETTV

[19] = system: Mus musculus; experiment: Cardioprotective activity against myocardial infarction Swiss mouse model assessed as EDV_L at 6 ug/kg/day, sc via osmotic pumps for 5 weeks by echocardiographic analysis (reference value: 0.214 +/-0.02 cm3); type: functional; conditions: dose 6 µg/kg/day
[20] = molecular target: T1, Frizzled-4 (Homo sapiens); experiment: Antagonist activity at Wnt3a-stimulaed human frizzled-4 expressed in human HEK293superTOP flash cells at 10 nM incubated for 24 hrs by luciferase reporter gene assay; type: functional, cell-based; conditions: HEK293
[21] = molecular target: Frizzled-2 (Mus musculus) (UniProt Q9JIP6); experiment: Antagonist activity at Wnt3a-stimulaed mouse frizzled-2 expressed in human HEK293superTOP flash cells incubated for 24 hrs by luciferase reporter gene assay; type: cell-based; conditions: HEK293, filed as antagonist
Chain of Frizzled-2 (Mus musculus) (Q9JIP6 whole entry, looked up): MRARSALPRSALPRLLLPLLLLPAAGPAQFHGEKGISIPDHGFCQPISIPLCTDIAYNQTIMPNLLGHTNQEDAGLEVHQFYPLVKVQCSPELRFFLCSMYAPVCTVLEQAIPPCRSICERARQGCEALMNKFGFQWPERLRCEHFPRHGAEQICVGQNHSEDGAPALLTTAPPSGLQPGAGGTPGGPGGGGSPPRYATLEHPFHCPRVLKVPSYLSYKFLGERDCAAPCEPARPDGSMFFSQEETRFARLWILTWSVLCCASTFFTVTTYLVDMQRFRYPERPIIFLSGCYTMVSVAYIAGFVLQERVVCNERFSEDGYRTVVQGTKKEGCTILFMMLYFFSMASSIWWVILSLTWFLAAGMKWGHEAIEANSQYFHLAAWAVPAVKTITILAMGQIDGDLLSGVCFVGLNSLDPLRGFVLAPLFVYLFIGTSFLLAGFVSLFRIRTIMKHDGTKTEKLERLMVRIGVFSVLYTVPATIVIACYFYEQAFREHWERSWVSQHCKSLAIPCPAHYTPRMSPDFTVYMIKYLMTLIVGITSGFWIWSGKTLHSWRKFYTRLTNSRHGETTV

[22] = system: Mus musculus; experiment: Cardioprotective activity against myocardial infarction Swiss mouse model assessed as increase in myofibroblast number at 6 ug/kg/day, sc via osmotic pumps for 5 weeks by immunohistochemical staining analysis; type: functional, organism-based; conditions: dose 6.0 µg/kg/day
[23] = system: Mus musculus; experiment: Cardioprotective activity against myocardial infarction Swiss mouse model assessed as increase in amount of blood vessels in heart at 6 ug/kg/day, sc via osmotic pumps for 5 weeks by immunohistochemical staining analysis; type: functional, organism-based; conditions: dose 6.0 µg/kg/day
[24] = molecular target: Frizzled-1 (Homo sapiens) (UniProt Q9UP38); experiment: Antagonist activity at Wnt3a-stimulaed human frizzled-1 expressed in human HEK293superTOP flash cells incubated for 24 hrs by luciferase reporter gene assay; type: functional, cell-based; conditions: HEK293, filed as antagonist
Chain of Frizzled-1 (Homo sapiens) (Q9UP38 70-647 limits assumed): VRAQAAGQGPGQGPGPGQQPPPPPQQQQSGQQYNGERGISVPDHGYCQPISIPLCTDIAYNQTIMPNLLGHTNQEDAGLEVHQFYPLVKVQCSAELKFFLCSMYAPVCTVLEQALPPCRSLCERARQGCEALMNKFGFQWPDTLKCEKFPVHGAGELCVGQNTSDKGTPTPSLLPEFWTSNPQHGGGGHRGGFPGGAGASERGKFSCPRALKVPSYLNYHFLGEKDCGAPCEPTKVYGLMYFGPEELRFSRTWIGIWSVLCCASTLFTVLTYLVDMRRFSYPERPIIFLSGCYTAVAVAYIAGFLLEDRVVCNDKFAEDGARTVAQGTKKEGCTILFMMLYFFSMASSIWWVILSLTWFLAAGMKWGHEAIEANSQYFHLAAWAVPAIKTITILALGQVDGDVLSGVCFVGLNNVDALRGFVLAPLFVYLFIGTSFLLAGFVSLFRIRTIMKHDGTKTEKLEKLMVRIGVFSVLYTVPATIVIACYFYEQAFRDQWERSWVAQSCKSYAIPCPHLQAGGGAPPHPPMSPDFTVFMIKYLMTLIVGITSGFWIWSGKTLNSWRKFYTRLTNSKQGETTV

[25] = system: Mus musculus; experiment: Cardioprotective activity against myocardial infarction Swiss mouse model assessed as reduction in wet lung weight at 6 ug/kg/day, sc via osmotic pumps for 5 weeks; type: functional, organism-based; conditions: dose 6.0 µg/kg/day
[26] = molecular target: T2, Frizzled-2; experiment: Antagonist activity at Wnt3a-stimulated frizzled-2 (unknown origin) expressed in human HEK293superTOP flash cells incubated for 24 hrs by luciferase reporter gene assay; type: functional, cell-based; conditions: HEK293, filed as antagonist
[27] = system: Mus musculus; experiment: Cardioprotective activity against myocardial infarction Swiss mouse model assessed as LVAd at 6 ug/kg/day, sc via osmotic pumps for 5 weeks by echocardiographic analysis (reference value: 0.5 +/-0.01 cm2); type: functional; conditions: dose 6 µg/kg/day
[28] = molecular target: Frizzled-5 (Homo sapiens) (UniProt Q13467); experiment: Antagonist activity at Wnt3a-stimulaed frizzled-5 (unknown origin) expressed in human HEK293superTOP flash cells incubated for 24 hrs by luciferase reporter gene assay; type: functional, cell-based; conditions: HEK293
[29] = system: Mus musculus; experiment: Cardioprotective activity against myocardial infarction Swiss mouse model assessed as increase in infarct area thickness in heart at 6 ug/kg/day, sc via osmotic pumps for 2 to 5 weeks by immunohistochemical staining analysis; type: functional, organism-based; conditions: dose 6.0 µg/kg/day, time 2-5 weeks
[30] = system: Mus musculus; experiment: Cardioprotective activity against myocardial infarction Swiss mouse model assessed as reduction in collagen level in infarct area at 6 ug/kg/day, sc via osmotic pumps for 5 weeks by immunohistochemical staining analysis; type: functional, organism-based; conditions: dose 6.0 µg/kg/day
[31] = system: Mus musculus; experiment: Cardioprotective activity against myocardial infarction Swiss mouse model assessed as increase in alpha-SMA protein expression in heart at 6 ug/kg/day, sc via osmotic pumps for 5 weeks by western blot analysis; type: functional, organism-based; conditions: dose 6.0 µg/kg/day
[32] = molecular target: Frizzled-2 (Rattus norvegicus) (UniProt Q08464); experiment: Agonist activity at rat frizzled-2 expressed in African green monkey COS7 cells by luciferase reporter gene assay; type: cell-based
[33] = molecular target: T2, Frizzled-2; experiment: Antagonist activity at frizzled-2 (unknown origin) expressed in human HEK293superTOP flash cells incubated for 24 hrs by luciferase reporter gene assay; type: functional, cell-based; conditions: HEK293
[34] = molecular target: Frizzled-2 (Rattus norvegicus) (UniProt Q08464); experiment: Agonist activity at rat frizzled-2 expressed in human HEK293superTOP flash cells by luciferase reporter gene assay; type: cell-based; conditions: HEK293
[35] = system: Mus musculus; experiment: Cardioprotective activity against myocardial infarction Swiss mouse model assessed as increase in ejection fraction at 6 ug/kg/day, sc via osmotic pumps for 5 weeks by echocardiographic analysis relative to control; type: functional; conditions: dose 6 µg/kg/day
[36] = species: Rattus norvegicus; experiment: Selectivity index, ratio of IC50 for Wnt3a-stimulated rat frizzled-1 expressed in human HEK293superTOPFlash cells to IC50 for Wnt3a-stimulated rat frizzled-2 expressed in human HEK293superTOPFlash cells; type: cell-based
[37] = system: Mus musculus; experiment: Cardioprotective activity against myocardial infarction Swiss mouse model assessed as SV_L at 6 ug/kg/day, sc via osmotic pumps for 5 weeks by echocardiographic analysis (reference value: 0.035 +/-0.005 cm3); type: functional; conditions: dose 6 µg/kg/day

For `CSCC[C@H](NC(=O)CNC(=O)[C@H](CCC(=O)O)NC(=O)[C@H](CO)NC(=O)[C@@H](NC(=O)[C@H](CCCCN)NC(=O)[C@H](CC(N)=O)NC(=O)[C@H](CS)NC(C)=O)[C@@H](C)O)C(=O)N[C@@H](CC(=O)O)C(=O)NCC(=O)N[C@@H](CS)C(=O)N[C@@H](CCC(=O)O)C(=O)N[C@@H](CC(C)C)C(N)=O` (Ac-CNKTSEGMDGCEL-NH2), which Activity [1] is on record?
The Activity was “Active”.

And the Activity [2]?
The Activity was “Active”.

And the “fold change (FC)” value [3]?
Its value is >4.

What about the Activity [4] of the same compound?
Its Activity is “Active”.

And the Activity [5]?
The Activity was “inactive”.

What about the Activity [6] of the same compound?
The Activity was “Active”.

What about the inhibition [7] of the same compound?
Its inhibition is “Active”.

And the inhibition [8]?
Its inhibition is “inactive”.

And the Activity [9]?
Its Activity is “inactive”.

And the inhibition [10]?
The inhibition was “inactive”.

And the Activity [11]?
Its Activity is 32.84 s⁻¹.

What about the Activity [12] of the same compound?
The Activity was “inactive”.

What about the Activity [13] of the same compound?
Its Activity is 69.13 s⁻¹.

And the Activity [14]?
Its Activity is 0.3 cm2.

What about the Activity [15] of the same compound?
The Activity was “inactive”.

And the Activity [16]?
The Activity was 0.09 cm3.

And the mortality at 0.006 mg/kg/day [17]?
The mortality at 0.006 mg/kg/day was 0%.

And the inhibition [18]?
Its inhibition is “Active”.

And the Activity [19]?
Its Activity is 0.132 cm3.

And the inhibition [20]?
Its inhibition is “inactive”.

What about the inhibition [21] of the same compound?
Its inhibition is “Active”.

What about the Activity [22] of the same compound?
Its Activity is “Active”.

And the Activity [23]?
Its Activity is “Active”.

What about the inhibition [24] of the same compound?
Its inhibition is “Active”.

What about the Activity [25] of the same compound?
The Activity was “Active”.

What about the inhibition [26] of the same compound?
Its inhibition is “Dose-Dependent Effect”.

And the Activity [27]?
Its Activity is 0.38 cm2.

And the inhibition [28]?
Its inhibition is “inactive”.

What about the Activity [29] of the same compound?
Its Activity is “Active”.

What about the Activity [30] of the same compound?
Its Activity is “Active”.

What about the Activity [31] of the same compound?
Its Activity is “Active”.

What about the Activity [32] of the same compound?
Its Activity is “inactive”.

What about the inhibition [33] of the same compound?
The inhibition was “inactive”.

And the Activity [34]?
Its Activity is “inactive”.

And the “fold change (FC)” value [35]?
The value was 2.

And the Ratio IC50 [36]?
Its Ratio IC50 is 100.

And the Activity [37]?
Its Activity is 0.041 cm3.
